In US20220073536A1 (Rigel Pharmaceuticals, Inc., priority 2003, published 2022):
Counter-ions that a name gives are not always drawn.

What follows are molecules tested on cultured human mast cells (CHMC) (assay: CHMC low cell density IgE activation: tryptase assay). Settings: Homo sapiens, Mast cell, low cell density CHMC, IgE activation, tryptase readout, 8 pt; read-out: LD Tryptase, CHMC, IgE, 8 pt.
Assay type: cell-based
Procedure, shortened: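 Anti-IgE-driven degranulation of cultured human mast cells at low density, 1000–1500 cells/well, was induced over 30 min at 37 °C. It was scored by supernatant tryptase activity on a fluorogenic substrate.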

| IC50 | Molecule |
| --- | --- |
| < 10 µM | Cc1c(O)cccc1Nc1ncc(F)c(Nc2ccc3c(c2)NC(=O)C(C)(C)O3)n1 [Compound 1060, N4-(2,2-Dimethyl-3-oxo-4H-benz[1,4]oxazin-6-yl)-5-fluoro-N2-(3-hydroxy-2-methylphenyl)-2,4-pyrimidinediamine] |

Same assay, conditions: Homo sapiens, Mast cell, low cell density CHMC, IgE activation, tryptase release, 3 pt; read-out: LD Tryptase, CHMC, IgE, 3 pt

| IC50 | Molecule |
| --- | --- |
| < 10 µM | COc1cc(Nc2ncc(F)c(Nc3cccc(OC(F)(F)F)c3)n2)cc(OC)c1 [Compound 324] |
| < 10 µM | CC1(C)Sc2ccc(Nc3nc(Nc4ccc5cn[nH]c5c4)ncc3F)cc2NC1=O [Compound 295] |

Same assay, conditions: Homo sapiens, Mast cell, low cell density CHMC, IgE activation, tryptase release, 8 pt; read-out: LD Tryptase, CHMC, IgE, 8 pt

| IC50 | Molecule |
| --- | --- |
| < 10 µM | Cn1nc(N)c2cc(Nc3ncc(F)c(Nc4ccc(Cl)c(Cl)c4)n3)ccc21 [Compound 805, N2-(3-Amino-1-methylindazol-5-yl)-N4-(3,4-dichlorophenyl)-5-fluoro-2,4-pyrimidinediamine] |
| < 10 µM | CC1Sc2ccc(Nc3nc(Nc4ccc5[nH]ncc5c4)ncc3F)cc2NC1=O (stereo not drawn) [Compound 278] |
| < 10 µM | Cc1cc(C)cc(Nc2ncc(F)c(Nc3ccc4c(c3)NC(=O)CS4(=O)=O)n2)c1 [Compound 302] |
| < 10 µM | CC1Sc2ccc(Nc3nc(Nc4ccc5cn[nH]c5c4)ncc3F)cc2NC1=O (stereo not drawn) [Compound 277] |
| < 10 µM | CC1(C)Sc2ccc(Nc3nc(Nc4ccc5cn[nH]c5c4)ncc3F)cc2NC1=O [Compound 295] |

Same assay, conditions: Homo sapiens, Mast cell, low cell density CHMC, IgE activation, tryptase, 3 pt; read-out: LD Tryptase, CHMC, IgE, 3 pt

| IC50 | Molecule |
| --- | --- |
| < 10 µM | Cc1cc(N2CCN(C)CC2)ncc1Nc1ncc(F)c(NC2CCCCC2)n1 [Compound 1247] |
| < 10 µM | CCN1CCN(c2ccc(Nc3ncc(F)c(NC4CCC4)n3)cn2)CC1 [Compound 1230] |
| < 10 µM | COc1cc(Nc2ncc(F)c(Nc3ccc4c(c3)OCO4)n2)cc(C(F)(F)F)c1 [Compound 373, 5-Fluoro-N4-(3,4-methylenedioxyphenyl)-N2-(3-methoxy-5-trifluoromethylphenyl)-2,4-pyrimidinediamine] |
| < 10 µM | COC(=O)c1cc2cc(Nc3ncc(F)c(Nc4cc(OC)cc(OC)c4)n3)ccc2o1 [Compound 381] |
| > 10 µM | CCOC(=O)N1CCN(c2cccc(Nc3ncc(F)c(NC4CN(C(=O)OC(C)(C)C)C4)n3)c2)CC1 [Compound 1129] |
| < 10 µM | COc1cc(Nc2nc(Nc3cc(C)cc(C(F)(F)F)c3)ncc2F)cc(OC)c1 [Compound 353] |
| < 10 µM | CCCCn1ncc2ccc(Nc3ncc(F)c(Nc4ccc(Cl)c(Cl)c4)n3)cc21 [Compound 715, N2-(1-n-Butylindazol-6-yl)-N4-(3,4-dichlorophenyl)-5-fluoro-2,4-pyrimidinediamine] |
| < 10 µM | CCCn1cc2cc(Nc3ncc(F)c(Nc4ccc(Cl)c(Cl)c4)n3)ccc2n1 [Compound 762, N4-(3,4-Dichlorophenyl)-5-fluoro-N2-(2-n-propylindazol-5-yl)-2,4-pyrimidinediamine] |
| < 10 µM | COc1ccc(Nc2ncc(F)c(Nc3ccc(OC(F)(F)F)c(Cl)c3)n2)c(OC)c1OC [Compound 671] |
| < 10 µM | COc1cc(Nc2nc(Nc3ccc(C(N)=O)c(Cl)c3)ncc2F)ccc1Cl [Compound 1354] |
| < 10 µM | COc1cc(Nc2nc(Nc3cccc4cc(C(=O)O)[nH]c34)ncc2F)cc(OC)c1 [Compound 383] |
| < 10 µM | CN1CCN(c2ccc(Nc3ncc(F)c(NC4CCC4)n3)cc2C(F)(F)F)CC1 [Compound 1207] |
| < 10 µM | Fc1cnc(Nc2ccc3cnn(CC4CC4)c3c2)nc1Nc1ccc(Cl)c(Cl)c1 [Compound 739, N2-[1-(Cyclopropylmethyl)indazol-6-yl]-N4-(3,4-dichlorophenyl)-5-fluoro-2,4-pyrimidinediamine] |
| > 10 µM | CCOC(=O)N1CCC(Nc2nc(Cl)ncc2F)CC1 [Compound 1213] |
| < 10 µM | CCN1CCN(c2ccc(Nc3ncc(F)c(NC4CCCC4)n3)cn2)CC1 [Compound 1231] |

Same assay, conditions: Homo sapiens, Mast cell, low cell density CHMC, IgE activation, tryptase, 8 pt; read-out: LD Tryptase, CHMC, IgE, 8 pt

| IC50 | Molecule |
| --- | --- |
| < 10 µM | COc1cc(Nc2nc(Nc3ccc4c(c3)OCCO4)ncc2F)cc(OC)c1 [Compound 351, N4-(3,5-Dimethoxyphenyl)-N2-(3,4-ethylenedioxyphenyl)-5-fluoro-2,4-pyrimidinediamine] |
| < 10 µM | COc1cc(Cl)cc(Nc2ncc(F)c(Nc3ccc4c(c3)NC(=O)C(C)(C)O4)n2)c1 [Compound 369, N2-(3-Chloro-5-methoxyphenyl)-N4-(2,2-dimethyl-3-oxo-4H-benz[1,4]oxazin-6-yl)-5-fluoro-2,4-pyrimidinediamine] |
| < 10 µM | CCCn1ncc2ccc(Nc3ncc(F)c(Nc4ccc(F)c(OC)c4)n3)cc21 [Compound 709, 5-Fluoro-N4-(4-fluoro-3-methoxyphenyl)-N2-(1-n-propylindazol-6-yl)-2,4-pyrimidinediamine] |
| < 10 µM | CNC(=O)c1cc2cccc(Nc3ncc(F)c(Nc4ccc5c(c4)OCO5)n3)c2[nH]1 [Compound 371, 5-Fluoro-N4-(3,4-methylenedioxyphenyl)-N2-[2-(N-methylamino)carbonylindol-7-yl]-2,4-pyrimidinediamine] |
| < 10 µM | COC(=O)c1ccc(Nc2ncc(F)c(Nc3ccc4c(c3)NC(=O)[C@H](C)O4)n2)cc1 [Compound 1263] |
| < 10 µM | COC(=O)c1cc2cc(Nc3ncc(F)c(Nc4cc(OC)cc(OC)c4)n3)ccc2o1 [Compound 381] |
| < 10 µM | CCCn1cc2cc(Nc3ncc(F)c(Nc4ccc(Cl)c(Cl)c4)n3)ccc2n1 [Compound 762, N4-(3,4-Dichlorophenyl)-5-fluoro-N2-(2-n-propylindazol-5-yl)-2,4-pyrimidinediamine] |
| < 10 µM | COc1cc(Nc2nc(Nc3ccc(C(N)=O)c(Cl)c3)ncc2F)ccc1Cl [Compound 1354] |
| < 10 µM | COc1cc(Cl)cc(Nc2ncc(F)c(Nc3ccc4c(c3)OCCO4)n2)c1 [Compound 370] |

Same assay, conditions: Homo sapiens, Mast cell, low cell density, IgE activation, 3 pt; read-out: LD Tryptase, CHMC, IgE, 3 pt

| IC50 | Molecule |
| --- | --- |
| < 10 µM | CC1C(=O)Nc2cc(-c3nc(Nc4ccc5oncc5c4)nc(N)c3F)ccc2S1(=O)=O (racemic) [Compound 929] |
| < 10 µM | COc1ccc(Nc2nc(Nc3ccc4c(c3)nc(CS(C)(=O)=O)n4C)ncc2F)cc1Cl [Compound 966] |
| < 10 µM | Oc1cccc(Nc2nc(Nc3cccc(-c4ncco4)c3)ncc2F)c1 [Compound 511, 5-Fluoro-N4-(3-hydroxyphenyl)-N2-[3-(oxazol-2-yl)phenyl]-2,4-pyrimidinediamine] |
| > 10 µM | Cn1c(=O)[nH]c2cc(Nc3ncc(F)c(Nc4ccc(Cl)c(Cl)c4)n3)ccc21 [Compound 904] |
| > 10 µM | CCn1c(C)nc2cc(Nc3ncc(F)c(Nc4ccc(Cl)c(Cl)c4)n3)ccc21 [Compound 932] |
| < 10 µM | COc1ccc(Nc2ncc(F)c(Nc3ccc(OC)c(Cl)n3)n2)cc1OC [Compound 877, N4-(2-Chloro-3-methoxypyrid-6-yl)-N2-(3,4-dimethoxyphenyl)-5-fluoro-2,4-pyrimidinediamine] |
| < 10 µM | CC1(C)Oc2ccc(Nc3nc(N)nc(-c4ccc5c(c4)nc(C(F)(F)F)n5CCO)c3F)cc2NC1=O [Compound 918] |

Same assay, conditions: Homo sapiens, Mast cell, low cell density, IgE activation, 8 pt; read-out: LD Tryptase, CHMC, IgE, 8 pt

| IC50 | Molecule |
| --- | --- |
| > 10 µM | Cn1c(=O)[nH]c2cc(Nc3ncc(F)c(Nc4ccc(Cl)c(Cl)c4)n3)ccc21 [Compound 904] |
| < 10 µM | CC1(C)Oc2ccc(Nc3nc(N)nc(-c4ccc5c(c4)nc(C(F)(F)F)n5CCO)c3F)cc2NC1=O [Compound 918] |

Same assay, conditions: low cell density CHMC, IgE activation, tryptase release, 8 pt; read-out: LD Tryptase, CHMC, IgE, 8 pt

| IC50 | Molecule |
| --- | --- |
| < 10 µM | CC1(C)COc2ccc(Nc3nc(Nc4cc5c6c(c4)c(CCO)cn6CCO5)ncc3F)cc2N1 [Compound 206, N4-(3,4-Dihydro-3,3-dimethyl-2H,4H-benz[1,4]oxazin-6-yl)-5-fluoro-N2-[6-(2-hydroxyethyl)-2,3-dihydropyrrolo[1,2,3-d,e]benzoxazin-8-yl]-2,4-pyrimidinediamine] |
| < 10 µM | CC(C)(C)C(=O)NCCCn1ncc2cc(Nc3ncc(F)c(Nc4ccc5c(n4)NC(=O)C(C)(C)O5)n3)ccc21 [Compound 852, N4-(2,2-Dimethyl-3-oxo-4H-5-pyrido[1,4]oxazin-6-yl)-5-fluoro-N2-[1-(3-pivalamidopropyl)indazol-5-yl]-2,4-pyrimidinediamine] |
| < 10 µM | CC1C(=O)Nc2cc(Nc3nc(Nc4cccc(O)c4)ncc3F)ccc2S1(=O)=O (racemic) [Compound 284, racemic-5-Fluoro-N2-[3-hydoxyphenyl]-N4-(2-methyl-1,1,3-trioxo-2H,4H-benzo[1,4]thiazin-6-yl)-2,4-pyrimidinediamine] |

Same assay, conditions: low cell density CHMC, IgE activation, tryptase, 3 pt; read-out: LD Tryptase, CHMC, IgE, 3 pt

| IC50 | Molecule |
| --- | --- |
| < 10 µM | N2- (2,2-Dimethyl-3-oxo-4H-benz[1,4]oxazin-6-yl)-5-fluoro-N4-(4-[N-[methoxycarbonylmethylene]aminocarbonyl]phenyl)-2,4-pyrimidinediamine [Compound 1331] |

Same assay, conditions: low cell density CHMC, IgE activation, tryptase, 8 pt; read-out: LD Tryptase, CHMC, IgE, 8 pt

| Molecule | IC50 |
| --- | --- |
| CN1CCN(c2ccc(Nc3ncc(F)c(NC4CCCCC4)n3)cc2Cl)CC1 [Compound 1199, N2-[3-Chloro-4-(4-methylpiperazino)phenyl]-N4-cyclohexyl-5-fluoro-2,4-pyrimidinediamine Bis Hydrogen Chloride Salt] | < 10 µM |
| N2- (2,2-Dimethyl-3-oxo-4H-benz[1,4]oxazin-6-yl)-5-fluoro-N4-(4-[N-[methoxycarbonylmethylene]aminocarbonyl]phenyl)-2,4-pyrimidinediamine [Compound 1331] | < 10 µM |

Same assay, conditions: low cell density, IgE activation, 3 pt; read-out: LD Tryptase, CHMC, IgE, 3 pt

| IC50 | Molecule |
| --- | --- |
| < 10 µM | N4-[3,4- (Difluoromethylenedioxy)phenyl]-N2- (3,5-dimethoxyphenyl)-5-fluoro-2,4-pyrimidinediamine [Compound 562] |
| < 10 µM | CC(C)(C)c1nnc(-c2cccc(Nc3ncc(F)c(Nc4cccc(O)c4)n3)c2)o1 [Compound 532, N2-[ (2-tert-Butyl-1,3,4-oxadiazol-5-yl)phenyl]-5-fluoro-N4-(3-hydroxyphenyl)-2,4-pyrimidinediamine] |
| < 10 µM | N4- (3-Chloro-4-methoxyphenyl)-5-fluoro-[1- (2-hydroxymethyl)-2-trifluoromethylbenzimidazol-5-yl]-2,4-pyrimidinediamine [Compound 921] |

| Molecule | IC50 |
| --- | --- |
| CN(c1ccc2c(c1)OCCO2)c1nc(NN)ncc1F [Compound 533, N4-(3,4-Ethylenedioxyphenyl)-5-fluoro-N4-methyl-2-hydrazine-4-pyrimidineamine] | > 10 µM |

Same assay, conditions: low cell density, IgE activation, 8 pt; read-out: LD Tryptase, CHMC, IgE, 8 pt

| IC50 | Molecule |
| --- | --- |
| < 10 µM | N4-[3,4- (Difluoromethylenedioxy)phenyl]-N2- (3,5-dimethoxyphenyl)-5-fluoro-2,4-pyrimidinediamine [Compound 562] |
| < 10 µM | N4- (3-Chloro-4-methoxyphenyl)-5-fluoro-[1- (2-hydroxymethyl)-2-trifluoromethylbenzimidazol-5-yl]-2,4-pyrimidinediamine [Compound 921] |
| < 10 µM | COc1ccc(Nc2nc(Nc3ccc4c(c3)nc(CN3CCOCC3)n4C)ncc2F)cc1Cl [Compound 955, N4-(3-Chloro-4-methoxyphenyl)-5-fluoro-N2-[1-methyl-2-(4-morpholinomethyl)benzimidazol-5-yl]-2,4-pyrimidinediamine] |
